Target: T1, yeast α-glucosidase (Saccharomyces cerevisiae, UniProt P53341)
T1 construct: purchased Sigma-Aldrich
Assay: microplate-based α-glucosidase inhibition assay (pNPG substrate)
Type: biochemical, Saccharomyces cerevisias
Conditions: pH 6.8, 37°C, 30 min, means ± SD, n = 3
Text: Acetonitrile (HPLC grade) and acetic acid (HPLC grade) were purchased from Merck (Darmstadt, Germany), and methanol (AR grade) was purchased from Kaitong (Tianjin, China). Sodium carbonate was purchased from BDH Laboratory Supplies (Poole, Dorset, UK). α-Glucosidase type 1 ([…] from Saccharomyces cerevisias) and 4-nitrophenyl α-D-glucopyranoside (pNPG) were purchased from Sigma-Aldrich (St. Louis, MO, USA). Ultra-pure water was purified using a Millipore Milli Q-Plus system (Billerica, MA, USA). […] Silica gel (200–300 mesh) was purchased from Qingdao Haiyang Chemical Co. Ltd. (Qingdao, China). Macroporous absorption resin (D101) was purchased from Haiguang Chemical Industrial Co. (Tianjin, China). Sephadex LH-20 was purchased from GE Healthcare Bio-Sciences AB (Uppsala, Sweden), and the Millex® nylon membrane syringe filter was purchased from Millipore (Billerica, MA, USA).
The yeast α-glucosidase inhibitory activities of the four flavonoids were determined by a microplate-based method with a slight modification. […] The 4-nitrophenol absorption was measured at 405 nm. […] The inhibitory activity was calculated using the following formula: […]
where AS, ASB, AC, and ACB are the absorbances of sample, sample blank, control, and control blank, respectively.

T1 sequence (P53341 whole entry): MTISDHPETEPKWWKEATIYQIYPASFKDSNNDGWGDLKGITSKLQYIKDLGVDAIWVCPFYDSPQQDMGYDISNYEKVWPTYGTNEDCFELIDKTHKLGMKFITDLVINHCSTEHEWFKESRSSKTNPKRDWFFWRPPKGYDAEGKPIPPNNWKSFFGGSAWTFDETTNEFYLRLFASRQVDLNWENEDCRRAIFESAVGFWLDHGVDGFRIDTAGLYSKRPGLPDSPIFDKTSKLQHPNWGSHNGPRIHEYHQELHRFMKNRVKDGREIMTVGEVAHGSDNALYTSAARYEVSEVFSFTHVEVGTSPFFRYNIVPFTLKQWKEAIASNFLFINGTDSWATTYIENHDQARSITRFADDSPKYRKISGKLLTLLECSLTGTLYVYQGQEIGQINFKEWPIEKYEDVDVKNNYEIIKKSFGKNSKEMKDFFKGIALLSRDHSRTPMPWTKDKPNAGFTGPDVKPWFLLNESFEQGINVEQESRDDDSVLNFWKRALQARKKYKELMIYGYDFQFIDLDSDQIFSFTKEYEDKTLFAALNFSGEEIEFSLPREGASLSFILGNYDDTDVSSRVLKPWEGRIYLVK

Row | Compound | IC50 [µM]
1 | O=c1c(O[C@@H]2O[C@H](CO)[C@@H](O)[C@H](O)[C@H]2O)c(-c2ccc(O)c(O)c2)oc2cc(O)cc(O)c12 [flavonoid 2, isoquercetin] | 117
2 | C[C@@H]1O[C@@H](OC[C@H]2O[C@@H](Oc3c(-c4ccc(O)c(O)c4)oc4cc(O)cc(O)c4c3=O)[C@H](O)[C@@H](O)[C@@H]2O)[C@H](O)[C@H](O)[C@H]1O [flavonoid 1, rutin] | 13.2
